# Where “and” joins values, the source holds several entries; their conditions need not be identical. Equal values may be shown once. Entries after “also recorded” stand apart in the source; their conditions may differ.
# Experiments:
# [1] = system: native rabbit intestinal tissue
# [2] = system: tissue engineered innervated intestinal smooth muscle sheets; assay: Electrical field stimulation induced relaxation, real-time force generation; format: cell-based, rabbit
# [3] = system: tissue engineered innervated intestinal smooth muscle sheets; format: cell-based, rabbit
# [4] = system: native rabbit intestinal tissue; remark: listed apart in the source
# [5] = system: native rabbit intestinal tissue; assay: Electrical field stimulation induced relaxation, real-time force generation
compound,measurement,setting,value
"NC1=N[C@H](O)[C@H]2[C@H]3O[C@]4(O)O[C@@H]([C@@H](O)[C@@]2(N1)[C@@H]4O)[C@]3(O)CO [TTX, tetrodotoxin]",inhibition of Ach-induced contraction with TTX,[1],72.73±3.66% and 72.73±3.7%
same,effect of TTX pre-treatment on EFS-induced relaxation,[2],inhibited entirely
same,effect of TTX pre-treatment on KCl-induced contraction,[3],unaffected; also recorded: did not inhibit
"[Cl-].[K+] [KCl, Potassium chloride]",peak KCl-induced contraction,[4],373.5±10.63 μN and 373.3±10.63 μN
"[D-p-Cl-Phe6, Leu17]-Vasoactive Intestinal Peptide [VIP-Ra]",inhibition of EFS-induced relaxation with VIP-Ra,[5]; VIP-Ra 2 μM pre-treatment,73.32±3.23%
"CC(=O)OCC[N+](C)(C)C [Ach, Acetylcholine]",area under the curve of Ach-induced contraction,"[1]; 1 μM Ach, native tissue",70448±5876 AU
same,peak Ach-induced contraction,"[1]; 1 μM Ach, native tissue",342.6±3.15 μN
"COC(=O)[C@@H](N)CCCNC(=N)N[N+](=O)[O-].Cl [L-NAME, Nω-Nitro-L-arginine methyl ester hydrochloride]",inhibition of EFS-induced relaxation with L-NAME,"[5]; L-NAME 300 μM pre-treatment, hydrochloride",78±2.9% and ~78%
same,inhibition at 300 µM,"[5]; Oryctolagus cuniculus, L-NAME 300 μM pre-treatment, read-out: inhibition of EFS-induced relaxation with L-NAME",78 ± 2.85%

# — patent US10377985B2, “Neural progenitor cell differentiation” (priority 2013, dated 2019)
